# Test results as given in patent publication US20030143191A1, “Chemokine beta-1 fusion proteins” (priority 2001, published 2003).
# Key:
# HIV = conditions: cited from earlier work
# NF-KB = assay: NF-KB/SV40/SEAP reporter assay in Jurkat T-cells; type: cell-based; conditions: NF-KB/SV40/SEAP/Neo Jurkat T-cells; 0.1, 1, 10 ng; positive control
# Text: NF-KB (Nuclear Factor KB) is a transcription factor activated by a wide variety of agents including the inflammatory cytokines IL-1 and TNF, CD30 and CD40, lymphotoxin-alpha and lymphotoxin-beta, by exposure to LPS or thrombin, and by expression of certain viral gene products. As a transcription factor, NF-KB regulates the expression of genes involved in immune cell activation, control of apoptosis (NF-KB appears to shield cells from apoptosis), B and T-cell development, anti-viral and antimicrobial responses, and multiple stress responses.
# Due to its central role and ability to respond to a range of stimuli, reporter constructs utilizing the NF-KB promoter element are used to screen the fusion protein. Activators or inhibitors of NF-KB would be useful in treating, preventing, and/or diagnosing diseases. For example, inhibitors of NF-KB could be used to treat those diseases related to the acute or chronic activation of NF-KB, such as rheumatoid arthritis.
# To construct a vector containing the NF-KB promoter element, a PCR based strategy is employed. The upstream primer contains four tandem copies of the NF-KB binding site ([…]) (SEQ ID NO: 48), 18 bp of sequence complementary to the 5′ end of the SV40 early promoter sequence, and is flanked with an XhoI site: […]
molecule,measurement,setting,value
CC[C@H]1C(=O)Nc2ccc(F)cc2N1C(=O)OC(C)C [GW-420867×],activity relative to HBY097,HIV,25 fold
C[C@H](Sc1nc(N)cc(Cl)n1)c1cc2ccoc2cn1 [PNU-142721],activity relative to its predecessor delavirdine,HIV,20- to 50 fold
Nc1nc(=O)n([C@@H]2CS[C@H](CO)O2)cc1F [emtricitabine],activity in vitro relative to lamivudine (3TC),HIV; in vitro,3- to 10 fold
TNF alpha,activation (SEAP reporter activity),NF-KB,5-10 fold
